Reference: article PMC12459020, “Chemical Probes that Target a Dissociative LuxR-Type Quorum Sensing Receptor in Gram-Negative Bacteria” (ACS Chemical Biology, 2025)
Entries after “also recorded” stand apart in the source; their conditions may differ. Where two headings read alike, the source gives them in different places.

Columns and labels:
[1] = molecular target: T1, EsaR (Pantoea stewartii subsp. stewartii, UniProt P54293); test: cell-based; settings: for activation at 100 µM / inhibition at 100 µM: 3.5 h; for activation at 100 µM: read-out: EsaR-activated (pesaS) [%] agonism; for inhibition at 100 µM: read-out: EsaR-activated (pesaS) antagonism; for EsaR agonism, in words: E. coli EsaR reporters, primary screen at 100 μM
T1 construct: expressed in transfected cells; host or cells: E. coli JLD271 (K12 ΔsdiA), arabinose-induced pJN105-esaR
T1 sequence (P54293 whole entry): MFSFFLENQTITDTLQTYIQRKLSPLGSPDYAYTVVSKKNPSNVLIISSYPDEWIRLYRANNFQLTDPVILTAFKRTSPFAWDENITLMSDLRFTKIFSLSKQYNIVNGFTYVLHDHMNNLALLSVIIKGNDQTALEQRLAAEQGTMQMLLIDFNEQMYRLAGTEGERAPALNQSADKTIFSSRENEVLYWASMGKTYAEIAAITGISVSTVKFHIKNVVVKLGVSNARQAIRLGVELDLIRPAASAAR
Description: (§1) EsaR transcriptional activation and repression were examined using E. coli and P. stewartii reporters (strains and plasmids listed in Table S1; see Methods section for assay details). […] We constructed reporters in E. coli based on previously reported EsaR reporters (Table S1). Each strain contained an EsaR expression plasmid (pJN105-esaR) and a reporter plasmid with either an EsaR-activated promoter (pesaS) or an EsaR-repressed promoter (pesaR) upstream of luxABCDE or GFP.
(§2) Gibson assembly was used to create all constructs. Plasmid pJN105-esaR was created by amplifying esaR from pAC-esaR and inserting it into pJN105. pesaSlux was created by inserting pesaS, amplified from pPesaR-AC:gfp, into the pCS-pesaRlux backbone. The pesaR promoter was amplified from pCS-pesaRlux and inserted into the pPesaR-AC:gfp backbone to create pesaR:GFP. P. stewartii reporter strains were created by transforming pesaR:GFP or pPesaR-AC:gfp into ESN51 by conjugation using E. coli S17 λpir as the donor strain. See SI for details of E. coli ExpR2 reporter construction.
(§3) Overnight cultures were diluted 1:10 in LB medium with appropriate antibiotics and grown at 37 °C (200 rpm) to an OD600 of 0.22–0.27 before induction with 4 mg mL^–1 arabinose. OD600 was measured by placing 200 μL of culture into a 96-well plate and reading optical density using the BioTek Synergy 2 plate reader. Assays were performed in technical triplicate in clear-bottom, white and clear-bottom, black 96-well microtiter plates (Corning Costar 3903 and 3904) for luminescence and fluorescence reporters, respectively. Compounds were dissolved in DMSO, and 2 μL of this stock, or DMSO as a negative control, was added to each well prior to adding 198 μL of induced culture. Plates were incubated at 37 °C (200 rpm) for 3.5 h. Each well was mixed by pipetting before reading OD600 and either luminescence or fluorescence. Single-point screens were performed with one or two biological replicates, and all dose–response curves were performed in biological triplicate. EC50 values were calculated based on a nonlinear regression of log(concentration) vs response (three parameters) using GraphPad Prism 9 software.

[2] = test system: LuxR; settings: cited from earlier work; for LuxR antagonism: 5 µM compound against 5 µM OHHL, negative values indicate potential activators, ref 6 (SI; Palmer et al., 2011); for LuxR [%] (agonism, activation): compounds at 200 μM, luminescence in V. fischeri ES114 (ΔluxI), ref Palmer et al., 2011 (main ref 44, SI ref 6)
[3] = test system: ExpR1; settings: cited from earlier work; for ExpR1 antagonism: 5 µM compound against 5 µM OHHL, negative values indicate potential activators, ref 6 (SI; Palmer et al., 2011); for ExpR1 [%] (agonism, activation): compounds at 200 μM, cellulase activity in P. versatile AC5117, ref Palmer et al., 2011 (main ref 44, SI ref 6)
[4] = test system: ExpR2; settings: cited from earlier work; for ExpR2 antagonism (percent inhibition): 5 µM compound against 5 µM OHHL, negative values indicate potential activators, ref 6 (SI; Palmer et al., 2011); for ExpR2 [%] (agonism, percent activation): compounds at 200 μM, cellulase activity in P. versatile AC5099, ref Palmer et al., 2011 (main ref 44, SI ref 6)
[5] = molecular target: T1, EsaR; test: cell-based; settings: for activation at 100 µM / inhibition at 100 µM: 3.5 h; for activation at 100 µM: read-out: EsaR-repressed (pesaR) [%] agonism; for inhibition at 100 µM: read-out: EsaR-repressed (pesaR) antagonism
Description: as §1, §2, §3

SMILES | activation at 100 µM [1] | inhibition at 100 µM [1] | EsaR agonism, in words [1] | fold less potent than OHHL in EsaR (EC50 ratio) ([1]; E. coli EsaR-activated reporter EC50 values) | LuxR antagonism [2] | LuxR [%] (agonism, activation) [2] | ExpR1 antagonism [3] | ExpR1 [%] (agonism, activation) [3] | ExpR2 antagonism (percent inhibition) [4] | ExpR2 [%] (agonism, percent activation) [4] | activation at 100 µM [5] | inhibition at 100 µM [5] | EC50 [1] | EC50 [5]
O=C(Cc1cccc(I)c1)N[C@H]1CCOC1=O [C11, 3-iodo PHL] | 65% | -57% | agonized EsaR | ~300 fold | 78% | 28% | 83% | 32% | 63% | 61% | 44% | -56% | – | –
O=C(Cc1ccc(Cl)cc1)N[C@H]1CCOC1=O [C5, 4-Cl PHL] | -1% | -3% | nearly inactive | – | 75% | 3% | 78% | 5% | 48% | 29% | 3% | 2% | – | –
O=C(Cc1ccccc1Cl)N[C@H]1CCOC1=O [C7] | 10% | 1% | – | – | 53% | 6% | 57% | 9% | 41% | 28% | 5% | -26% | – | –
O=C(Cc1ccccc1[N+](=O)[O-])N[C@H]1CCOC1=O [C15] | -10% | -6% | – | – | 23% | 4% | 27% | 9% | 3% | 19% | -1% | 0% | – | –
O=C(Cc1ccc([N+](=O)[O-])cc1)N[C@H]1CCOC1=O [C13] | 14% | -29% | – | – | 47% | 24% | 44% | 15% | 32% | 24% | 14% | 12% | – | –
O=C(N[C@H]1CCOC1=O)c1ccccc1 [B8] | 2% | -4% | – | – | 34% | 2% | 37% | 0% | 23% | 6% | 6% | -4% | – | –
CCCCCC(=O)CC(=O)N[C@H]1CCOC1=O [OOHL, 3-(oxo)-octanoyl HL, reference compound] | 100% | -89% | strongly activated | – | 63% | 24% | 65% | 29% | 26% | 78% | 91% | -138% | – | –
O=C(Cc1ccccc1I)N[C@H]1CCOC1=O [C12] | -9% | -12% | – | – | 63% | 7% | 65% | 11% | 55% | 24% | 9% | 4% | – | –
CCCC(=O)N[C@H]1CCOC1=O [BHL, reference compound] | 26% | -22% | – | – | 43% | 0% | 48% | 0% | 19% | 17% | 6% | -46% | – | –
CCCCCCCCCCCCCCCC(=O)N[C@H]1CCOC1=O [hDHL, reference compound] | 25% | -11% | – | – | 27% | 2% | 4% | 0% | 7% | 11% | 22% | -71% | – | –
O=C(Cc1cccc(Cl)c1)N[C@H]1CCOC1=O [C6] | 49% | -40% | – | – | 65% | 61% | 63% | 49% | 54% | 81% | 29% | -58% | ≥ 125 µM | ≥ 216 µM
CCCCCCCC(=O)N[C@H]1CCOC1=O [OHL, octanoyl HL, reference compound] | 98% | -95% | strongly activated; also recorded: agonized EsaR | – | 86% | 25% | 78% | 19% | 38% | 79% | 91% | -40% | – | –
O=C(Cc1ccccc1F)N[C@H]1CCOC1=O [C4] | -1% | -9% | – | – | 49% | 2% | 44% | 8% | 27% | 24% | -3% | 15% | – | –
